The values below come from patent US5428059A, “Benzopyran derivatives and an anti-allergic agent possessing the same as the active ingredient” (Dainippon Ink & Chemicals, Inc., priority 1991, dated 1995).

This experiment deals with Hartley-type male guinea pigs. Put plainly: Guinea Pig Homogeneous Skin Passive Anaphylaxis Assay (PCA reaction). Format: in vivo, guinea pig (Hartley-type). The settings on record: 10 mg/kg oral, 48 h after sensitization; for inhibition in vivo at 10 mg/kg: Cavia porcellus, read-out: Allergic reaction inhibitory index (%). In short, it runs like this:
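Inhibition % is derived from Evans Blue leakage area (mm^2, product of spot diameters) read 30 min after i.v. OVA/dye challenge. Beforehand, male Hartley guinea pigs (250~300 g) were passively sensitized intradermally with 120-fold-diluted anti-OVA serum and, after 48 h, received test compound 10 mg/kg p.o.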

On to `CC(C)Oc1cccc2oc(=O)c(O)c(O)c12` [Compound 211, 3,4-(dihydroxy)-5-(isopropoxy)-2H-1-benzopyran-2-one], for which the inhibition in vivo at 10 mg/kg amounted to 52%. Regarding `CC(=O)Oc1c(O)c(=O)oc2cccc(OC(C)C)c12` [Compound 212, 3-hydroxy-4-(acetoxy)-5-(isopropoxy)-2H-1-benzopyran-2-one], the inhibition in vivo at 10 mg/kg was determined as 37%.

Consider `CC(=O)Oc1c(OC(C)=O)c2c(OC(C)C)cccc2oc1=O` [Compound 213, 3,4-(diacetoxy)-5-(isopropoxy)-2H-1-benzopyran-2-one], for which the inhibition in vivo at 10 mg/kg stood at 33%. Take `CCCCCCCCCCOc1c(O)c2c(OC(C)C)cccc2oc1=O` [Compound 214, 3-(decyloxy)-4-hydroxy-5-(isopropoxy)-2H-1-benzopyran-2-one]: the inhibition in vivo at 10 mg/kg was found to be 38%.

In the case of `CC(C)Oc1cccc2oc(=O)c(O)c(OC(C)C)c12` [Compound 215, 3-hydroxy-4,5-(diisopropoxy)-2H-1-benzopyran-2-one], the inhibition in vivo at 10 mg/kg came out at 34%.

Take `CCCCCCCCCCOc1c(OC)c(=O)oc2cccc(OC(C)C)c12` [Compound 216, 3-(methoxy)-4-(decyloxy)-5-(isopropoxy)-2H-1-benzopyran-2-one]: the inhibition in vivo at 10 mg/kg is 34%. Regarding `CCCCCCCCCCOc1c(OC(C)=O)c(=O)oc2cccc(OC(C)C)c12` [Compound 217, 3-(acetoxy)-4-(decyloxy)-5-(isopropoxy)-2H-1-benzopyran-2-one], the inhibition in vivo at 10 mg/kg amounted to 30%. The same measure, in the same setting: as for `CCCCCCCCCCOc1c(OC(=O)c2ccccc2)c2c(OC(C)C)cccc2oc1=O` [Compound 218, 3-(decyloxy)-4-(benzoyloxy)-5-(isopropoxy)-2H-1-benzopyran-2-one], the figure is 31%; as for `CC(C)=CCC/C(C)=C/COc1c(O)c2c(OC(C)C)cccc2oc1=O` [Compound 219, 3-(geranyloxy)-4-hydroxy-5-(isopropoxy)-2H-1-benzopyran-2-one], 36%. Regarding `CC(C)=CCC/C(C)=C/COc1c(O)c(=O)oc2cccc(OC(C)C)c12` [Compound 220, 3-hydroxy-4-(geranyloxy)-5-(isopropoxy)-2H-1-benzopyran-2-one], the inhibition in vivo at 10 mg/kg worked out at 30%.

On to `CC(C)=CCC/C(C)=C/COc1c(OC(C)C)c2c(OC(C)C)cccc2oc1=O` [Compound 221, 3-(geranyloxy)-4,5-(diisopropoxy)-2H-1-benzopyran-2-one], for which the inhibition in vivo at 10 mg/kg amounted to 33%. Turning to `COc1c(OC/C=C(\C)CCC=C(C)C)c2c(OC(C)C)cccc2oc1=O` [Compound 222, 3-(methoxy)-4-(geranyloxy)-5-(isopropoxy)-2H-1-benzopyran-2-one], the inhibition in vivo at 10 mg/kg turned out to be 32%. Regarding `CC(C)=CCC/C(C)=C/COc1c(OC/C=C(\C)CCC=C(C)C)c2c(OC(C)C)cccc2oc1=O` [Compound 223, 3,4-(digeranyloxy)-5-(isopropoxy)-2H-1-benzopyran-2-one], the inhibition in vivo at 10 mg/kg turned out to be 33%. As to `CCCCOc1c(OC(=O)c2ccccc2)c(=O)oc2cccc(O)c12` [Compound 224, 3-(benzoyloxy)-4-(butoxy)-5-hydroxy-2H-1-benzopyran-2-one], the inhibition in vivo at 10 mg/kg was 30%. For the compound `CCCCOc1c(O)c2c(OC)cccc2oc1=O` [Compound 225, 3-(butoxy)-4-hydroxy-5-(methoxy)-2H-1-benzopyran-2-one], the “Allergic reaction inhibitory index (%)” value is recorded as 35%. Regarding `CCCCOc1cccc2oc(=O)c(OC(=O)c3ccccc3)c(O)c12` [Compound 226, 3-(benzoyloxy)-4-hydroxy-5-(butoxy)-2H-1-benzopyran-2-one], the inhibition in vivo at 10 mg/kg turned out to be 33%. Take `CCCCOc1cccc2oc(=O)c(O)c(O)c12` [Compound 227, 3,4-(dihydroxy)-5-(butoxy)-2H-1-benzopyran-2-one]: the inhibition in vivo at 10 mg/kg was 50%.

For `CCCCOc1cccc2oc(=O)c(OC(=O)c3ccccc3)c(OC)c12` [Compound 228, 3-(benzoyloxy)-4-(methoxy)-5-(butoxy)-2H-1-benzopyran-2-one], the inhibition in vivo at 10 mg/kg worked out at 34%.
